{"source": "patent US6610494B2", "about": "“Solid-phase activity assay for biologically active substance” (priority 1996, dated 2003)", "key": {"biotinylated α-casein": {"tested_on": "biotinylated α-casein", "assay": "Solid phase protease activity assay using biotinylated casein", "type": "biochemical", "protocol": "Preparation of biotinylated casein: 12 mg α-casein in 1 ml of 0.1 M pH 7.2 phosphate-buffer saline [PBS, NaCl, 9.00; Na2HPO4, 1.15; NaH2PO4, 0.23 (g/l)] was allowed to react with 3.6 mg NHS-biotin in 150 ul DMSO for 2 hours at room temperature with gently shaking.\nAssay procedure for protease activity using biotinylated casein: The microtitre plates except for the first column of 8 wells were coated using biotinylated α-casein in PBS (0.13 ug/well/100 ul) and incubated for 2 hours at 37° C. The plates were washed three times with 0.1 M PBST (PBS with 0.05% Tween-20). Different concentrations of the enzyme solution as indicated in FIGS. 12-14 (100 ul) were diluted with the appropriate buffer (see Table 2). They were added in triplicate to the wells of a plate followed by incubating in a humid atmosphere at 37° C. for 30 minutes. The plate was washed three times using PBST to terminate the protease reaction. A streptavidin-alkaline phosphatase solution (100 ul/well, 1:1000 dilution in bicarbonate buffer pH 9.5) was added to all wells in the plate except for the first column of 8 wells (as blank) and the plate was incubated at room temperature for 30 minutes. The blank set of wells contained only PBS, no added enzyme and no coating with biotinylated casein. The reaction was stopped by emptying and washing the plate six times with PBST. The pNPP substrate (100 ul/well, 1 mg/ml in 10% diethanolamine buffer pH9.8) was added to each well of the plate followed by incubation at room temperature for about 20 minutes. The absorbency was then read at 405 nm using a microplate reader (Bio-Rad laboratories, Ltd, Mississauga, ON, Canada; model 450). The best sensitivity was obtained when the maximum absorbency was around 2.0 optical density units."}, "[1]": {"biological_target": "T1, trypsin egg white inhibitor (ovomucoid) (Gallus gallus, UniProt P01005)", "T1 construct": "purchased Sigma Chemical Co. or Fisher Scientific Co", "T1 sequence (P01005 25-210)": "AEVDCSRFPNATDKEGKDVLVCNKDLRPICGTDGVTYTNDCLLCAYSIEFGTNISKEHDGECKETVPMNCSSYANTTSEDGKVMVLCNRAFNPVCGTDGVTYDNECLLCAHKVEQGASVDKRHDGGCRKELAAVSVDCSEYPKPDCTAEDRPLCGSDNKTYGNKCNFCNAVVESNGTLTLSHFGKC", "assay": "BEISA: competition of unlabelled proteases with biotinylated trypsin for coated inhibitor", "type": "binding", "settings": "ovomucoid-coated plate", "protocol": "The 96-well microtiter plate (Falcon 3911) was coated with trypsin egg white inhibitor (ovomucoid, 4 ug/100 ul/well) at […] overnight. The plate was washed once using PBST {[PBS, NaCl, 9.00; Na2HPO4, 1.15; NaH2PO4, 0.23 (g/l) pH 7.2] plus 0.05% Tween-20} and 200 ul of 5% skim milk was added to each well of the plate followed by incubation at 37° C. for 2 hours. The plate was rinsed twice with PBST and 50 ul of PBS was added to each well of the plate except for those in column one where 100 ul of PBS was added. Unlabelled trypsin (50 ul of 400 ug/ml) was added to the wells of the second column followed by successive double dilutions of trypsin in wells up to and including those in column 11. Biotinylated trypsin in PBS (50 ul of 1:3000 dilution of the stock to yield approximately 2 ug/100 ul/well) was added to each well except those in the first column followed by incubation at 37° C. for 1 hour. The final volume in each well was 100 ul. The blank set of wells with no trypsin (column 1) served as the negative control while the last set of wells (column 12) with biotinylated trypsin but no unlabelled trypsin served as the positive control. […] The absorbency was then read at 405 nm using a microplate reader (Bio-Rad laboratories Inc. Mississauga, ON, Canada, model 450). […]"}, "[2]": {"settings": "optimal pH of each protease, 37° C., 30 minutes"}}, "data": [{"substance": "trypsin", "values": [{"measurement": "Sensitivity: amount of enzyme required to produce a 10% decrease in maximal absorbency", "setting": "biotinylated α-casein; 0.5 hour hydrolysis", "value": 30, "unit": "ng/100 ul"}, {"measurement": "Hydrolysis of biotin-casein by proteases", "setting": "biotinylated α-casein; [2]", "value": "Yes"}, {"measurement": "Sensitivity (amount of enzyme required to hydrolyse 10% of the biotinylated α-casein)", "setting": "biotinylated α-casein; [2]", "value": 30, "unit": "ng/100 ul/sample"}, {"measurement": "Concentration of trypsin that could be detected", "setting": "[1]", "value": "0.1 to 1.0", "unit": "µg/mL"}]}]}
